Assay results: US8012984B2, “Substituted pyrazinone melanin concentrating hormone receptor-1 antagonists and methods” (Bristol-Myers Squibb Company, priority 2007, dated 2011)
pKi: −log10 of the molar value.

What was measured:
[1] = target: T1, human melanin concentrating hormone receptor (MCHR1) (Homo sapiens, UniProt Q99705, A5T/E4Q); experiment: Radioligand binding assay for assessment of MCHR1 activity; details: membranes of HEK-293 cells expressing mutated hMCHR1; competition with [125I]-MCH
T1 construct: expressed in transfected cells; host or cells: HEK-293 (stably transfected), membranes
Experimental: Compounds of Formula I were initially characterized in an in vitro binding assay to determine their Ki or ability to antagonize binding of a peptide agonist to the human melanin concentrating hormone receptor (MCHR1).
Membranes from stably transfected HEK-293 cells expressing a mutated (E4Q, AST) hMCHR1 receptor were prepared by dounce homogenization and differential centrifugation. Binding experiments were carried out with 0.5-1.0 ug of membrane protein incubated in a total of 0.2 ml in 25 mM HEPES (pH 7.4) with 10 mM MgCl2, 2 mM EGTA, and 0.1% BSA (Binding Buffer) for 90 min. For competition binding assays, reactions were carried out in the presence of with 0.06-0.1 nM [Phe^n, [^125I]Tyr^19]-MCH and increasing concentrations of unlabeled test molecules. Reactions were terminated by rapid vacuum filtration over 96 well-GFC Unifilter plates pre-coated with 0.075 ml binding buffer containing 1% BSA, and washed 3 times with 0.4 ml of Phospho-buffered Saline (pH 7.4) containing 0.01% TX-100. Filters were dried; 0.05 ml microscint 20 was added to each well and radioactivity was subsequently quantified by scintillation counting on a TopCount™ microplate scintillation counter (Packard). Inhibitory constants were determined by nonlinear least squares analysis using a four parameter logistic equation.

MCHR1 = target: T2, MCHR1 (Rattus norvegicus, UniProt P97639); experiment: Assessment of in vivo MCHR1 activity (body weight and food consumption in rats with choice of diets); set-up: species or system Sprague Dawley rats
T2 construct: from tissue; host or cells: whole animal: male Sprague Dawley rats
Experimental: Male Sprague Dawley (CD, Charles River Breeding Laboratory) rats weighing approximately 240 grams were placed in individual plastic cages with AlphaDri bedding. The room was maintained at 72° F. and 50% humidity, and a 12/12 light dark cycle with lights out at 1600 hours. The rats were conditioned for 5 days prior to the start of the study to having a choice of foods.
Baseline body weight was measured prior to drug treatment on day 0 of the study. Baseline food consumption was the average of the 3 days prior to the first drug treatment. […] All data were evaluated using ANOVA and Fishers PLSD statistics.

[2] = 45 mg/kg p.o. daily, male Sprague Dawley rats
[3] = 30 mg/kg p.o. daily, day 0 through day 4, male Sprague Dawley rats

T2 sequence (P97639 whole entry): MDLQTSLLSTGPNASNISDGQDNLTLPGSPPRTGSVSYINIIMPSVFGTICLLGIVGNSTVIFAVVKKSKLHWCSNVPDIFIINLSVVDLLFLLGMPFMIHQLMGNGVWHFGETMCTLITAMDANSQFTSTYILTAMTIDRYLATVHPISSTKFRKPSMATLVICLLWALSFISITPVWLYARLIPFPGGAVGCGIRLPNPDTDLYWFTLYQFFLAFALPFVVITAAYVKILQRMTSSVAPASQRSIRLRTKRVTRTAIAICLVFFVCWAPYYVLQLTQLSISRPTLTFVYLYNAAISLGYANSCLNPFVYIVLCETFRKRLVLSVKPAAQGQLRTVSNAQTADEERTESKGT
T1 sequence (Q99705 whole entry E4Q/A5T): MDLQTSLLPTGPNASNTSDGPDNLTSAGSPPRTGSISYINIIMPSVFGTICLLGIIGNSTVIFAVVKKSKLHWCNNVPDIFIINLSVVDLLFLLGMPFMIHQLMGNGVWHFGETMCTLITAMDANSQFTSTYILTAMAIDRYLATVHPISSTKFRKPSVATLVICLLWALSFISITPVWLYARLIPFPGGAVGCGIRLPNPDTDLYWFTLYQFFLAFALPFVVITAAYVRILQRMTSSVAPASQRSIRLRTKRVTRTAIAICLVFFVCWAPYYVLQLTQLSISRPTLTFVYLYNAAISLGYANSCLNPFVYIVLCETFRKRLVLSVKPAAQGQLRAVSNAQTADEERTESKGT

| Structure (SMILES) | pKi [1] | also measured |
| --- | --- | --- |
| Cc1cc(-n2ccnc(OCCc3cccc(Cl)c3)c2=O)ccc1OCC(C)(C)O [Example 155] | 7.35 |  |
| COc1cc(-n2ccnc(SCCCc3ccccc3)c2=O)ccc1OC[C@@H](C)O [Example 19] | 5.50 |  |
| CCc1cc(-n2ccnc(SCCc3ccccc3)c2=O)ccc1OCC(C)(C)O [Example 65] | 8.00 |  |
| COc1cc(-n2ccnc(SCCc3cccc(F)c3)c2=O)ccc1OCC(C)(C)O [Example 131] | 7.74 |  |
| COc1cc(-n2ccnc(SCc3ccccc3)c2=O)ccc1OCC(C)(C)O [Example 50] | 5.33 |  |
| Cc1cc(-n2ccnc(SCCc3ccc(F)cc3)c2=O)ccc1OCC(C)(C)O [Example 124] | 8.05 |  |
| CCc1cc(-n2ccnc(OCCc3ccc(Cl)cc3)c2=O)ccc1OCC(C)(C)O [Example 151] | 7.19 |  |
| COc1cc(-n2ccnc(Sc3ccc(C(F)(F)F)cc3)c2=O)ccc1OCC(C)O (stereo not shown) [Example 71] | 7.21 |  |
| COc1ccc(-n2ccnc(SCCc3ccc(Cl)cc3)c2=O)cc1OC [Example 3] | 6.24 |  |
| CC(C)(O)COc1ccc(-n2ccnc(OCCc3ccc(F)cc3)c2=O)cc1Cl [Example 141] | 7.11 |  |
| Cc1cc(-n2ccnc(Sc3ccc(C(F)(F)F)cc3)c2=O)cnc1OCC(C)(C)O [Example 170] | 6.88 |  |
| Cc1cc(-n2ccnc(SCCc3ccccc3)c2=O)ccc1OCC(C)(C)O [Example 113, 1-(4-(2-Hydroxy-2-methylpropoxy)-3-methylphenyl)-3-(phenethylthio)pyrazin-2(1H)-one] | 8.10 | Weight Reduction versus Vehicle (MCHR1; [2]): 4.2% |
| Cc1cc(-n2ccnc(SCCc3ccccn3)c2=O)ccc1OCC(C)(C)O [Example 110, 1-(4-(2-Hydroxy-2-methylpropoxy)-3-methylphenyl)-3-(2-(pyridin-2-yl)ethylthio)pyrazin-2(1H)-one] | 7.77 |  |
| COc1cc(-n2ccnc(Sc3ccc(C(F)(F)F)cc3)c2=O)ccc1OCC(C)(C)OC(=O)CN [Example 193, 1-(2-Methoxy-4-(2-oxo-3-(4-(trifluoromethyl)phenylthio)pyrazin-1(2H)-yl)phenoxy)-2-methylpropan-2-yl 2-aminoacetate] |  | Weight Reduction versus Vehicle (MCHR1; 3 mg/kg p.o. daily, day 0 through day 4, male Sprague Dawley rats): 0.7%; Weight Reduction versus Vehicle (MCHR1; 10 mg/kg p.o. daily, day 0 through day 4, male Sprague Dawley rats): 2.1%; Weight Reduction versus Vehicle (MCHR1; [3]): 3.4% |
| Cc1cc(=O)n(CC(C)(C)O)c2ccc(-n3ccnc(Sc4ccc(OC(F)(F)F)cc4)c3=O)cc12 [Example 178] | 6.54 |  |
| COc1cc(-n2ccnc(Sc3nc4ccc(Cl)cc4s3)c2=O)ccc1OCC(C)(C)O [Example 59] | 6.90 |  |
| COc1cc(-n2ccnc(SCCc3ccncc3)c2=O)ccc1OCC(C)(C)O [Example 28] | 5.50 |  |

| Structure (SMILES) | pKi [1] | also measured |
| --- | --- | --- |
| COc1cccc(Sc2nccn(-c3ccc(OCC(C)(C)O)c(OC)c3)c2=O)c1 [Example 39] | 5.80 |  |
| COc1cc(-n2ccnc(SC(C)Cc3ccccc3)c2=O)ccc1OCC(C)(C)O (stereo not shown) [Example 46] | 6.63 |  |
| CC(C)(O)COc1ccc(-n2ccnc(Sc3ccc(C(F)(F)F)cc3)c2=O)cn1 [Example 157] | 5.76 |  |
| COc1cc(-n2ccnc(Sc3ccc(C(F)(F)F)cc3)c2=O)ccc1O[C@H]1COC[C@H]1O [Example 69] | 7.31 |  |
| COc1cc(-n2ccnc(Sc3ccc(C(F)(F)F)cc3)c2=O)ccc1OCC(C)OC(=O)[C@@H](N)C(C)C (stereo in doubt) [Example 202, 1-(2-Methoxy-4-(2-oxo-3-(4-(trifluoromethyl)phenylthio)pyrazin-1(2H)-yl)phenoxy)propan-2-yl 2-amino-3-methylbutanoate] |  | Weight Reduction versus Vehicle (MCHR1; [3]): 2.2% |
| COc1cc(-n2ccnc(SCCc3ccccn3)c2=O)ccc1OCC(C)(C)O [Example 27, 1-(4-(2-Hydroxy-2-methylpropoxy)-3-methoxyphenyl)-3-(2-(pyridin-2-yl)-ethylthio)pyrazin-2(1H)-one] | 7.20 | Weight Reduction versus Vehicle (MCHR1; [2]): 4.1% |
| COc1cc(-n2ccnc(Sc3ccccc3C(F)(F)F)c2=O)ccc1OCC(C)(C)O [Example 40] | 5.49 |  |
| Cc1cc(-n2ccnc(SCCc3ccccc3)c2=O)cnc1OCC(C)(C)O [Example 172] | 7.07 |  |
| COc1cc(-n2ccnc(Sc3ccc(C(F)(F)F)cc3)c2=O)ccc1OCC(C)(C)O [Example 36] | 7.48 |  |
| CC(C)(O)COc1ncc(-n2ccnc(SCCc3ccccn3)c2=O)cc1Cl [Example 169] | 5.89 |  |
| Cc1cc(-n2ccnc(Sc3ccc(C(F)(F)F)cn3)c2=O)ccc1OCC(C)(C)O [Example 95, 1-(4-(2-Hydroxy-2-methylpropoxy)-3-methylphenyl)-3-(5-(trifluoromethyl)pyridin-2-ylthio)pyrazin-2(1H)-one] | 7.39 |  |
| COc1ccc(-n2ccnc(Sc3ccc(OC(F)(F)F)cc3)c2=O)cc1OC [Example 10] | 6.85 |  |
| COc1cc(-n2ccnc(Sc3ccc(OC(F)(F)F)cc3)c2=O)ccc1OCC(C)(C)O [Example 38] | 7.70 |  |
| CCc1cc(-n2ccnc(SCCc3ccc(F)cc3)c2=O)ccc1OCC(C)(C)O [Example 125] | 7.77 |  |
| COc1cc(-n2ccnc(Sc3ccc(OC(F)(F)F)cc3)c2=O)ccc1OCC(O)C1CC1 (stereo not shown) [Example 67] | 7.55 |  |
| COc1cc(-n2ccnc(Sc3ccccc3)c2=O)ccc1OCC(C)(C)O [Example 49] | 5.52 |  |
